Data taken from ChEMBL document CHEMBL1128468, “Amino acid side chain descriptors for quantitative structure-activity relationship studies of peptide analogues” (J Med Chem, 1995).
Peptide text beside a SMILES is read from it.

These compounds were tested against Angiotensin-converting enzyme (Homo sapiens, UniProt P12821) (assay: Biological activity was measured against Angiotensin I converting enzyme). Conditions: read-out: Log 1/IC50 (converted).
Angiotensin-converting enzyme, sequence (P12821 whole entry): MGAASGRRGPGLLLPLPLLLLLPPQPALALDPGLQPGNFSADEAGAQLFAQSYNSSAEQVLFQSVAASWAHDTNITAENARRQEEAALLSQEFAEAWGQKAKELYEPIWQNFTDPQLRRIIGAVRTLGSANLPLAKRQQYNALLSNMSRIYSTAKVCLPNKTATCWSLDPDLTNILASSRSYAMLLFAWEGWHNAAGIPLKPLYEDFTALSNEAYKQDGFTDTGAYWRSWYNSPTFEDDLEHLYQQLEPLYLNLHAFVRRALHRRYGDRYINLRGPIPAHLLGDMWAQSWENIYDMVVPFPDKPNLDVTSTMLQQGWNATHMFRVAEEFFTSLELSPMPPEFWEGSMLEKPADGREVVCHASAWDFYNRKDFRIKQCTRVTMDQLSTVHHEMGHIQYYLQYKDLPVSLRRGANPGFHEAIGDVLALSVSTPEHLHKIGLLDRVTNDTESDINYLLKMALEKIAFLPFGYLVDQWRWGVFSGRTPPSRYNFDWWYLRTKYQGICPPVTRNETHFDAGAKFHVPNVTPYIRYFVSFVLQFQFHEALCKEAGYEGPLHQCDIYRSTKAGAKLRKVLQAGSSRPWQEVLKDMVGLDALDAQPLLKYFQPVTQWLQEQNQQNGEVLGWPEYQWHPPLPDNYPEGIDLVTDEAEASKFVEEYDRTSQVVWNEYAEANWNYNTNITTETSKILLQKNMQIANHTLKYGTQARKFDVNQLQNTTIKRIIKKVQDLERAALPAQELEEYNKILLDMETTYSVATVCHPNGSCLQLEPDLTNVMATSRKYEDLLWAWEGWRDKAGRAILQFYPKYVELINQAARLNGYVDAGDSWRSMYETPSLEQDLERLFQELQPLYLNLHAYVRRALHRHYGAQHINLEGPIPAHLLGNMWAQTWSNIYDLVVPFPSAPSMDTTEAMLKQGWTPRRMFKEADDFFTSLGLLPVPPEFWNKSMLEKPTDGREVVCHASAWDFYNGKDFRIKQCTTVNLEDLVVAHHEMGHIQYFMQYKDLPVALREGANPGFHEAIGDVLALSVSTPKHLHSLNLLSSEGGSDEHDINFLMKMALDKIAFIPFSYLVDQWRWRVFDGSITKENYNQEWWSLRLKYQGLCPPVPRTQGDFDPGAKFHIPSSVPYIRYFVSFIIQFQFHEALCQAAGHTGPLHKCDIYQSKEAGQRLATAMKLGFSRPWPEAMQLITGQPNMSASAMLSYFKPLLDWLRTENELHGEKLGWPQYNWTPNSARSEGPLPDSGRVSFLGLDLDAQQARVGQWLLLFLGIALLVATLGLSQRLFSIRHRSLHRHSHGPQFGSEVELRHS

Structure (SMILES) | IC50 [µM]
CSCC[C@H](NC(=O)CN)C(=O)O | 1410
CC[C@H](C)[C@H](N)C(=O)N1CCCC1C(=O)O (single isomer, unassigned) | 129
NCC(=O)N[C@@H](CCC(N)=O)C(=O)O (H-Gly-Gln-OH) | 7080
N=C(N)NCCC[C@H](NC(=O)[C@@H](N)Cc1ccccc1)C(=O)O (H-Phe-Arg-OH) | 912
CC[C@H](C)[C@H](N)C(=O)N[C@@H](Cc1c[nH]c2ccccc12)C(=O)O | 2
N=C(N)NCCC[C@H](NC(=O)CN)C(=O)O (H-Gly-Arg-OH) | 3240
NCC(=O)N[C@@H](CO)C(=O)O (H-Gly-Ser-OH) | 3800
C[C@H](N)C(=O)N[C@@H](C)C(=O)O (H-Ala-Ala-OH) | 617
NCC(=O)N[C@@H](CCC(=O)O)C(=O)O (H-Gly-Glu-OH) | 5370
C[C@H](N)C(=O)NCC(=O)O (H-Ala-Gly-OH) | 2510
NCC(=O)N[C@@H](Cc1c[nH]cn1)C(=O)O (H-Gly-His-OH) | 3090
N=C(N)NCCC[C@H](N)C(=O)N[C@@H](Cc1ccccc1)C(=O)O | 229
C[C@H](NC(=O)[C@@H](N)CCC(=O)O)C(=O)O (H-Glu-Ala-OH) | 10000
NC(=O)CC[C@H](N)C(=O)NCC(=O)O (H-Gln-Gly-OH) | 7410
C[C@H](N)C(=O)N[C@@H](Cc1c[nH]c2ccccc12)C(=O)O (H-Ala-Trp-OH) | 10
N[C@@H](CO)C(=O)NCC(=O)O (H-Ser-Gly-OH) | 8510
CC(C)C[C@H](N)C(=O)N[C@@H](C)C(=O)O [LEU-ALA] (H-Leu-Ala-OH) | 309
C[C@H](N)C(=O)N[C@@H](Cc1ccc(O)cc1)C(=O)O (H-Ala-Tyr-OH) | 87.1
C[C@H](O)[C@H](N)C(=O)NCC(=O)O | 10000
NCCCC[C@H](N)C(=O)NCC(=O)O (H-Lys-Gly-OH) | 3240
CC(C)C[C@H](NC(=O)[C@@H](N)Cc1c[nH]cn1)C(=O)O (H-His-Leu-OH) | 3240
NCC(=O)N[C@@H](Cc1c[nH]c2ccccc12)C(=O)O (H-Gly-Trp-OH) | 30.2
N[C@@H](CCC(=O)O)C(=O)NCC(=O)O (H-Glu-Gly-OH) | 10000
N[C@@H](Cc1c[nH]cn1)C(=O)NCC(=O)O (H-His-Gly-OH) | 6310
NCC(=O)N[C@@H](CC(=O)O)C(=O)O (H-Gly-Asp-OH) | 9120
C[C@H](NC(=O)[C@@H](N)CC(=O)O)C(=O)O (H-Asp-Ala-OH) | 3800
C[C@H](NC(=O)[C@@H](N)CCCN=C(N)N)C(=O)O (H-Arg-Ala-OH) | 457
N[C@@H](CC(=O)O)C(=O)NCC(=O)O (H-Asp-Gly-OH) | 14100
CC(C)[C@H](N)C(=O)NCC(=O)O [VAL-GLY] (H-Val-Gly-OH) | 1100

The remaining lines, values ahead:

IC50 [µM] | Structure (SMILES)
4570 | CC(C)[C@H](NC(=O)CN)C(=O)O (H-Gly-Val-OH)
933 | CC[C@H](C)[C@H](N)C(=O)N[C@@H](Cc1ccccc1)C(=O)O (H-Ile-Phe-OH)
1200 | CC[C@H](C)[C@H](N)C(=O)NCC(=O)O (H-Ile-Gly-OH)
5370 | NCCCC[C@H](NC(=O)CN)C(=O)O (H-Gly-Lys-OH)
4790 | CSCC[C@H](N)C(=O)NCC(=O)O (H-Met-Gly-OH)
380 | C[C@H](NC(=O)[C@@H](N)CCCCN)C(=O)O (H-Lys-Ala-OH)
2000 | C[C@H](NC(=O)CN)C(=O)O (H-Gly-Ala-OH)
8710 | CC(C)C[C@H](N)C(=O)NCC(=O)O (H-Leu-Gly-OH)
457 | C[C@H](NC(=O)[C@@H](N)Cc1ccc(O)cc1)C(=O)O
5890 | N[C@@H](Cc1c[nH]c2ccccc12)C(=O)NCC(=O)O (H-Trp-Gly-OH)
182 | N=C(N)NCCC[C@H](N)C(=O)N1CCC[C@@H]1C(=O)O

The compounds below were run against T1, Substance-K receptor (Oryctolagus cuniculus, UniProt P79218) (assay: Antagonist activity against Tachykinin receptor 2 was measured by Rabbit pulmonary artery(RPA) assay.). Conditions: read-out: pA2 (converted).
T1 sequence (P79218 whole entry): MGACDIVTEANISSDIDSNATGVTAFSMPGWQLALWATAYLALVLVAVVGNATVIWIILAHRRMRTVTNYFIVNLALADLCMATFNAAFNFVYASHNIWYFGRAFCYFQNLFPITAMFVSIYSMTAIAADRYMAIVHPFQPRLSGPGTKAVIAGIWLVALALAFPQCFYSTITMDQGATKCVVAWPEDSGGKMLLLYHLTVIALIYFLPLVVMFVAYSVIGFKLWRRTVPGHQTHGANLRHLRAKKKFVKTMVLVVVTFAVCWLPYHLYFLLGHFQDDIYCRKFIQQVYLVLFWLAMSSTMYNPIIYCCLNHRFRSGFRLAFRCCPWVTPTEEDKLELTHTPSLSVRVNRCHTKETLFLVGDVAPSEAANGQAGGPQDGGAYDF
Format: functional

Kb [µM] | Structure (SMILES)
100 | CC(C)[C@H](NC(=O)[C@@H](Cc1c[nH]c2ccccc12)NC(=O)[C@H](CCCCN)NC(=O)[C@@H](N)CC(=O)O)C(=O)N[C@H](Cc1c[nH]c2ccccc12)C(=O)N[C@H](Cc1c[nH]c2ccccc12)C(=O)N[C@@H](CCCCN)C(=O)O
1.66 | CC(C)[C@H](NC(=O)[C@@H](Cc1c[nH]c2ccccc12)NC(=O)[C@H](Cc1ccc(O)cc1)NC(=O)[C@@H](N)CCC(N)=O)C(=O)N[C@H](Cc1c[nH]c2ccccc12)C(=O)N[C@H](Cc1c[nH]c2ccccc12)C(=O)N[C@@H](Cc1ccccc1)C(=O)O

What follows are compounds tested against T2, Substance-K receptor (Mesocricetus auratus, UniProt P51144) (assay: Antagonist activity against Tachykinin receptor 2 was measured by Hamster isolated trachea(HT) assay.). Conditions: read-out: pA2 (converted).
T2 sequence (P51144 whole entry): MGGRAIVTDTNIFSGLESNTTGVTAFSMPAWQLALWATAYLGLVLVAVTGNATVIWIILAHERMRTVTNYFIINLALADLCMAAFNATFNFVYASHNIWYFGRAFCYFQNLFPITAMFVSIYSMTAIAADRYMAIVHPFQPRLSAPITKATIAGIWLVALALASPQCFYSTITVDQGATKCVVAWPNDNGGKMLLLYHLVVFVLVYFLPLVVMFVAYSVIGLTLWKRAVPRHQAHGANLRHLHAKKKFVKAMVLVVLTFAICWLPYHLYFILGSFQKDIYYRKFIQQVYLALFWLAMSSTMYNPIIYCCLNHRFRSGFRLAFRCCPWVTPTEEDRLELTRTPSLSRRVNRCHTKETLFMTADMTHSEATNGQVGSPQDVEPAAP
Format: functional, tissue-based

Kb [µM] | Structure (SMILES)
4.17 | CC(C)[C@H](NC(=O)[C@@H](Cc1c[nH]c2ccccc12)NC(=O)[C@H](CCCCN)NC(=O)[C@@H](N)CC(=O)O)C(=O)N[C@H](Cc1c[nH]c2ccccc12)C(=O)N[C@H](Cc1c[nH]c2ccccc12)C(=O)N[C@@H](CCCCN)C(=O)O
1.74 | CC(C)[C@H](NC(=O)[C@@H](Cc1c[nH]c2ccccc12)NC(=O)[C@H](Cc1ccc(O)cc1)NC(=O)[C@@H](N)CCC(N)=O)C(=O)N[C@H](Cc1c[nH]c2ccccc12)C(=O)N[C@H](Cc1c[nH]c2ccccc12)C(=O)N[C@@H](Cc1ccccc1)C(=O)O
